# Results published in PubChem BioAssay AID2060599 (Molecular Pharmacology Branch, DTP, NCI, 2025).
# Tested on: 817829-284-R-J1-PDC complex spheroids, viability
# Experiment: Anticancer human tumor 817829-284-R-J1-PDC patient-derived colon adenocarcinoma cell line growth inhibition [CLK]
# Details: for viability, T/C: stronger effect = lower value
# Method in brief: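 Patient-derived tumor cells grown as complex spheroids with HUVEC endothelial cells and mesenchymal stem cells, treated with drug combinations. Concentrations descend in half-log steps from near clinical Cmax, or from 10 microM if Cmax unknown.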
# 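Further: spheroids exposed to the agents for seven days before readout.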
smiles,measurement,setting,value
CC(CO)NC(=O)c1cc(-c2ccc(Cl)cc2)nn(-c2cnn(C)c2)c1=O (centres undefined) + CNC(=O)c1ccc(Nc2nc(OC3CCCC3)c3c(-c4ccc5nc(C)oc5c4)c[nH]c3n2)c(OC)c1,IC50,"curve of first compound, second compound 0.0316 µM",< 31.6 nM
same,IC50,"curve of first compound, second compound 0.1 µM",< 31.6 nM
same,IC50,"curve of first compound, second compound 0.316 µM",< 31.6 nM
same,IC50,"curve of first compound, second compound 1 µM",< 31.6 nM
same,IC50,"curve of first compound, second compound 3.16 µM",< 31.6 nM
same,IC50,"curve of first compound, second compound 10 µM",< 31.6 nM
same,"viability, T/C","second compound 0.0316 µM, first compound 0.0316 µM",38.7%
same,"viability, T/C","second compound 0.0316 µM, first compound 0.1 µM",34.8%
same,"viability, T/C","second compound 0.0316 µM, first compound 0.316 µM",32.9%
same,"viability, T/C","second compound 0.0316 µM, first compound 1 µM",31%
same,"viability, T/C","second compound 0.0316 µM, first compound 3.16 µM",28.5%
same,"viability, T/C","second compound 0.0316 µM, first compound 10 µM",23.4%
same,"viability, T/C","second compound 0.1 µM, first compound 0.0316 µM",24.2%
same,"viability, T/C","second compound 0.1 µM, first compound 0.1 µM",23.8%
same,"viability, T/C","second compound 0.1 µM, first compound 0.316 µM",27.7%
same,"viability, T/C","second compound 0.1 µM, first compound 1 µM",21.3%
same,"viability, T/C","second compound 0.1 µM, first compound 3.16 µM",39.8%
same,"viability, T/C","second compound 0.1 µM, first compound 10 µM",21.4%
same,"viability, T/C","second compound 0.316 µM, first compound 0.0316 µM",27.4%
same,"viability, T/C","second compound 0.316 µM, first compound 0.1 µM",29.7%
same,"viability, T/C","second compound 0.316 µM, first compound 0.316 µM",24.1%
same,"viability, T/C","second compound 0.316 µM, first compound 1 µM",24.7%
same,"viability, T/C","second compound 0.316 µM, first compound 3.16 µM",16.1%
same,"viability, T/C","second compound 0.316 µM, first compound 10 µM",19.2%
same,"viability, T/C","second compound 1 µM, first compound 0.0316 µM",14.1%
same,"viability, T/C","second compound 1 µM, first compound 0.1 µM",36.8%
same,"viability, T/C","second compound 1 µM, first compound 0.316 µM",16%
same,"viability, T/C","second compound 1 µM, first compound 1 µM",16.2%
same,"viability, T/C","second compound 1 µM, first compound 3.16 µM",15.8%
same,"viability, T/C","second compound 1 µM, first compound 10 µM",10.7%
same,"viability, T/C","second compound 3.16 µM, first compound 0.0316 µM",22.3%
same,"viability, T/C","second compound 3.16 µM, first compound 0.1 µM",20.2%
same,"viability, T/C","second compound 3.16 µM, first compound 0.316 µM",18.7%
same,"viability, T/C","second compound 3.16 µM, first compound 1 µM",17.9%
same,"viability, T/C","second compound 3.16 µM, first compound 3.16 µM",18.6%
same,"viability, T/C","second compound 3.16 µM, first compound 10 µM",19.4%
same,"viability, T/C","second compound 10 µM, first compound 0.0316 µM",24.3%
same,"viability, T/C","second compound 10 µM, first compound 0.1 µM",16.7%
same,"viability, T/C","second compound 10 µM, first compound 0.316 µM",41.6%
same,"viability, T/C","second compound 10 µM, first compound 1 µM",18.7%
same,"viability, T/C","second compound 10 µM, first compound 3.16 µM",14.1%
same,"viability, T/C","second compound 10 µM, first compound 10 µM",16.8%
CNC(=O)c1ccc(Nc2nc(OC3CCCC3)c3c(-c4ccc5nc(C)oc5c4)c[nH]c3n2)c(OC)c1,"viability, T/C",compound 0.0316 µM,33.6% [middle of 8 runs]
same,"viability, T/C",compound 0.1 µM,28.2% [middle of 8 runs]
same,"viability, T/C",compound 0.316 µM,26.3% [middle of 8 runs]
same,"viability, T/C",compound 1 µM,24.2% [middle of 8 runs]
same,"viability, T/C",compound 3.16 µM,20.1% [middle of 8 runs]
same,"viability, T/C",compound 10 µM,23.3% [middle of 8 runs]
same,IC50,"compound alone, run of 08/15/2023",< 31.6 nM
